# Where two headings read alike, the source gives them in different places.
# Experiments:
# [1] = test system: Aβ accumulation in brain; details: intrathecal delivery by osmotic minipumps, guinea pigs; cited from earlier work
# [2] = test system: primary neurons prepared from cerebral cortex; details: embryonic day 18 rats; cited from earlier work
# [3] = test system: Notch signaling; details: while reducing Aβ production; cited from earlier work
# [4] = pH 8; cited from earlier work
# [5] = humans; cited from earlier work
# [6] = cited from earlier work
# [7] = statement in words, cited from earlier work
# [8] = cited from earlier work; remark: listed apart in the source
# [9] = test system: Aβ hexamers in plasma; assay: Plasma (blood) Aβ levels in mice after intraperitoneal STI-571, Western blot/ELISA; format: in vivo, mouse
# Description: […]. Wild-type C57Bl/6 and DBA/2J male mice (age 8-12 weeks) were administered drug or vehicle twice daily for 7 days by intraperitoneal injection. […]. […] See, for example, Gleevec Prescribing Information 2003 revision T2003-09; Printed in U.S.A. 89019001 (Novartis), incorporated herein by reference.
# Animals were sacrificed 12 hr after the last injection. Individual mice were anesthetized with isoflurane and blood samples (100-300ul) taken by cardiac puncture with heparinized syringes. Samples were placed on ice for 30 minutes in the presence of EDTA and then centrifuged for 20 minutes at 16,000×g at 4° C. The plasma fraction was removed and stored at −80° C. Brains were removed and frozen rapidly on dry ice and stored at −80° C.
# Detection of mouse Aβ1-40 in blood and brain samples was performed by using a commercially available immunoassay kit (Biosource mouse Aβ1-40, Catalog No. KMB3481, Invitrogen, Carlsbad, Calif.) or by Western blot. Mouse brain samples were prepared by homogenizing brain tissue in a polytron in the presence of 5M guanidine HCl and 50 mM Tris HCl, pH 8.0 as described in the assay protocol. […]
# Blood samples were diluted 1:5 in standard diluent buffer. Samples were assayed in duplicate and OD450 measured on a Tecan infinite 2000 plate reader. […]
compound,measurement,setting,value
"6-(2,6-dichlorophenyl)-8-methyl-2-(methylsulfanylphenyl-amino)-8H-pyrido[2,3-d]pyrimidin-7-one [inhibitor 2]",Aβ accumulation in brain,[1],decrease in Aβ accumulation in brain
same,production of Aβ,[2],reduce production of Aβ
same,effect on Notch signaling,[3],without affecting Notch signaling
"COc1cc([S+](C)[O-])ccc1-c1nc2ncccc2[nH]1 (centres unmarked) [ARL115, sulmazole]",log P,[4],1.17
same,CNS side effects,[5],lack the CNS side effects
COc1ccc(-c2nc3ncccc3[nH]2)c(OC)c1.Cl [ARL-57],log P,[4],2.59
same,CNS side effects,[5],spectacular bright color vision
Cc1ccc(NC(=O)c2ccc(CN3CCNCC3)cc2)cc1Nc1nccc(-c2cccnc2)n1 [N-desmethyl derivative],plasma AUC of metabolite relative to the AUC for imatinib,[6]; humans,about 15%
same,elimination half-life,[6]; oral administration in healthy volunteers,~40 h
Cc1ccc(NC(=O)c2ccc(CN3CCN(C)CC3)cc2)cc1Nc1nccc(-c2cccnc2)n1 [STI-571],penetration of the blood-brain barrier,[7],poor penetration of the blood-brain barrier
same,penetration of the blood-brain barrier,[7]; listed as GLEEVEC/STI-571,poor penetration of the blood-brain barrier
same,penetration of the blood-brain barrier,[7]; listed as imatinib,does not substantially penetrate the blood brain barrier
same,absorption after oral administration,"[8]; human, in vivo, po",rapidly absorbed
same,mean AUC versus dose,"[8]; human, in vivo",did not increase proportionally with increasing dose
same,Cmax (time),"[8]; pediatric patients, oral",2 to 4 h
same,reduction of plasma levels of Aβ,"[9]; 20 mg/kg IP twice daily for 7 days, B6 mice",approximately 50%
same,reduction of circulating Aβ,"[9]; highest dose (100 mg/kg) IP twice daily for 7 days, young D2 mice",approximately 75%
